Measurements as given in patent US6603046B1, “Bis-aromatic a,β-unsaturated ketones” (Lica Pharmaceuticals A/S, priority 1992, dated 2003).

Experiments:
[1] = tested on: chloroquine resistant P. falciparum DD2 strain; assay: In vitro growth of P. falciparum DD2, 3H-hypoxanthine uptake (Example 15); assay type: cell-based, Plasmodium falciparum; details: title: percentage inhibition of 3H-hypoxanthine uptake
human lymphocytes = assay: Lymphocyte Proliferation Assay, 3H-thymidine incorporation (Example 13); details: Homo sapiens, Lymphocyte, read-out: inhibition of lymphocytes (lower figure)
L. major promastigotes = L. major promastigotes from 4-days cultures, 3H-thymidine uptake (Examples 5, 14); assay type: cell-based, Leishmania major; details: Leishmania major, Table 14.1, read-out: percentage inhibition of promastigotes (upper figure); for inhibition at 0.5 µg/mL: 0.5 μg/ml; for inhibition at 1 µg/mL: 1 μg/ml; for inhibition at 5 µg/mL: 5 μg/ml; for inhibition at 10 µg/mL: 10 μg/ml
Description: Parasite cultures. The same parasite culture as described in Example 4. Promastigotes were harvested on day 4 of the culture and used for the parasiticidal assay.
Effect on promastigotes. […] Following incubation, […] of ^3H-thymidine was added to each well and further incubated for 18 hrs. Promastigotes were then harvested on filter paper by means of a cell harvester (Skatron, Lierbyen, Norway), extensively washed with distilled water and counted in a scintillation counter (Minaxi Ti-Carb 4000, United Technologies, Packard, USA).
L. major promastigotes. The L. major promastigotes were prepared as described in Example 4 and harvested after 4 days.

| SMILES | Growth in % of control (mean ± SEM) ([1]; 0.5 μg/ml) | Growth in % of control (mean ± SEM) ([1]; 1 μg/ml) | Growth in % of control (mean ± SEM) ([1]; 5 μg/ml) | Growth in % of control (mean ± SEM) ([1]; 10 μg/ml) | inhibition at 0.5 µg/mL (human lymphocytes) | inhibition at 1 µg/mL (human lymphocytes) | inhibition at 5 µg/mL (human lymphocytes) | inhibition at 10 µg/mL (human lymphocytes) | inhibition at 0.5 µg/mL (L. major promastigotes) | inhibition at 1 µg/mL (L. major promastigotes) | inhibition at 5 µg/mL (L. major promastigotes) | inhibition at 10 µg/mL (L. major promastigotes) |
| --- | --- | --- | --- | --- | --- | --- | --- | --- | --- | --- | --- | --- |
| COc1ccc(OC)c(/C=C/C(=O)c2ccc(O)cc2)c1 [2,5-Dimethoxy-4′-hydroxychalcone] | 14 ± 75% | 21.2 ± 11.1% | 68.4 ± 6.8% | 92.5 ± 2.4% | – | – | – | – | – | – | – | – |
| COc1ccc(OC)c(/C=C/C(=O)c2ccccc2)c1 [2,5-Dimethoxychalcone] | 11 ± 7.7% | 5.5 ± 5.1% | 27.1 ± 5.3% | 58.8 ± 6.4% | – | – | – | – | – | – | – | – |
| C=CCOc1ccc(C(=O)/C=C/c2ccc(OC)c(OC)c2)cc1 [3,4-Dimethoxy-4′-allyloxychalcone, 3,4-dimethoxy-4′-prop-2-enyloxychalcone] | 0 ± 11.3% | 9.4 ± 15.8% | 16.2 ± 5.5% | 52.8 ± 4.7% | – | – | – | – | – | – | – | – |
| C=CCOc1ccc(C(=O)/C=C/c2cc(OC)cc(OC)c2)cc1 [3,5-Dimethoxy-4′-allylchalcone, 3,5-dimethoxy-4′-prop-2-enyloxychalcone] | 9.1 ± 5.2% | 3.4 ± 4.7% | 44 ± 8.1% | 79.1 ± 10.5% | – | – | – | – | – | – | – | – |
| COc1cccc(/C=C/C(=O)c2ccc(O)cc2)c1OC [drawing 69] | – | – | – | – | 2% | 7.5% | 89.3% | 99.8% | 32% | 43% | 95.2 ± 4.7% | 97.1 ± 3.5% |
| COc1cc(/C=C/C(=O)c2ccc(O)cc2O)ccc1O [drawing 74] | – | – | – | – | 2% | 6% | 9.5% | 38.3% | 7.8% | 14.3% | 56.7% | 83.3% |
| COCOc1ccc(C(=O)/C=C/c2ccc(OC)cc2OC)cc1 [drawing 90] | – | – | – | – | 0% | 5.1% | 11.2% | 15.4% | 22.8 ± 9.7% | 27.6 ± 10.9% | 50.2 ± 13% | 65.4 ± 16.1% |
| COc1ccc(CCC(=O)c2ccc(O)cc2)c(OC)c1 [drawing 92] | – | – | – | – | 0% | 0% | 3% | 1.5% | 8.5 ± 1.8% | 5.6 ± 5.4% | 22.5 ± 9.7% | 31.3 ± 16% |
